# Assays:
# [1] = test system: bloodstream forms of T. brucei and T. congolense; experiment: Trypanocidal activity in vitro, Alamar Blue assay; format: cell-based, Trypanosoma brucei and T. congolense; details: 48 h total incubation
# Description: Trypanosoma brucei and T. congolense are the causative agents of sleeping sickness in humans and nagana in cattle, respectively. The protozoan parasites live extracellularlyin blood and tissue fluids of mammals and are transmitted by the bite of infected tsetse flies (Glossina spp.). Here the trypanocidal activity against bloodstream forms of T. brucei and T. congolense of bis-8-hydroxy quinoline N-substituted benzylamines derivatives was investigated in vitro, according to methods described in. Steverding et al. (2006) Kinetoplastid Biology and Disease, 5(3): 1-5; Hongmance et al., (2007) Antimicrob. Agents Chemother. 51:1105-1106; and Zhao et al., (2005) Bio-org. Med. Chem.; 13: 3921-3926. Cells were seeded into 96-well tissue culture plates in 200 μl medium containing various concentrations of analogues dissolved in H2O. The controls contained the respective solvent alone. […] After 24 h (trypanosomes) or 43 h (HL-60) incubation, 20 μl of the colorimetric viability indicator Alamar Blue® was added to each well. The cells were incubated for a further 24 h (trypanosomes) or 5 h (HL-60) so that the total incubation time was 48 h. Then, the plates were read on a Dynatech MR5000ELISA reader (Denkendorf, Germany),using a test wavelength of 550 nm and a reference wave length of 630 nm. Each test was set up in duplicate and repeated three times. For comparison, the general cytotoxicity of the compounds was assayed with human myeloid leukaemia HL-60 cells. The anti-trypanosomal activities and the general cytotoxicities of the new analogues were evaluated using the Alamar Blue® assay.
# [2] = test system: KB3 (epitheloid lung cancer) cell lines; experiment: Cell growth inhibition (cytotoxicity), MTS assay, KB3 cell line; format: cell-based; details: KB3; Table 3B; MTS assay, triplicate; read-out: KB3 IC50
# Experimental: Cell growth inhibition was determined by the MTS assay; the number of viable cells were proportional to the extent of formazan production in the presence or absence of drugs. […]
# [3] = test system: bloodstream forms of T. congolense STIB910; details: T. congolense STIB910, identical experimental conditions, Merschjohann et al. (2001); cited from earlier work
SMILES,"GI50 ([1]; 50% growth inhibition, read-out: GI50) [nM]","MIC ([1]; lowest concentration at which all cells were killed, read-out: MIC) [µM]",IC50 [2] [nM],melting point [°C],IC50 [3] [nM]
"Oc1ccc(CN(Cc2ccc(O)c3ncccc23)Cc2ccc(O)c3ncccc23)c2cccnc12 [BPM19,218, 5,5′,5″-nitrilotris(methylene)triquinolin-8-ol]",450 ± 100,1,> 10000,175 to 178,–
"CC(C)(C)OC(=O)N(Cc1cc(C(F)(F)F)cc(C(F)(F)F)c1)Cc1ccc(O)c2ncccc12 [BPM19,190, Tert-butyl-3,5-bis(trifluoromethyl)benzyl((8-hydroxyquinolin-5-yl)methyl)carbamate]",–,–,1000,149 to 152,–
N=C(N)c1ccc(N=NNc2ccc(C(=N)N)cc2)cc1 [diminazene aceturate],–,–,–,–,500
